Test results published in patent US12606569B2, “Alkaloid-containing compositions and uses thereof” (priority 2017, dated 2026).
Where two headings read alike, the source gives them in different places.

Columns and labels:
[1] = assay type: physicochemical; conditions: for chemical stability of the component in buffers / degradation of the component at pH 2 and 10: 1% w/w purified loline extract, 0.2M buffers; for chemical stability of the component in buffers: except pH 2 and 10; for degradation of the component at pH 2 and 10: starting at 24 h
Protocol: 1% w/w solutions of purified loline extract at various pH and 0.2M buffers were used in this investigation. The solutions were maintained at 54° C. (±1° C.) and 70° C. (±1° C.) and pH remained at the target pH (±0.2 pH units). Samples were taken periodically over a 2-3 week period and analysed by GC-FID to determine NFL strength.

[2] = assay type: physicochemical

SMILES | chemical stability of the component in buffers [1] | degradation of the component at pH 2 and 10 [1] | overall degradation rates ([2]; 50° C. compared with 70° C.) | conversion of NFL to loline, citric acid based system versus acetic acid derived buffer ([2]; both 50° C. and 70° C.) | stability on increasing or decreasing pH from pH 4 ([1]; 70° C.) | time after which the stability of NFL plateaus ([1]; 70° C., pH 2.6) | stability (degradation of NFL to loline) ([1]; 70° C., pH 4, acetic acid derived buffer, over 170 hours) | stability (degradation of NFL to loline) ([1]; 70° C., pH 4, citric acid buffer)
CC(=O)N(C)C1C2CN3CCC(O2)C13 (stereo not shown) [NAL, N-acetylloline] | chemically stable | small degradation |  |  |  |  |  | 
CC(=O)NC1C2CN3CCC(O2)C13 (stereo not shown) [NANL, N-acetylnorloline] | chemically stable | small degradation |  |  |  |  |  | 
CN(C=O)C1C2CN3CCC(O2)[C@H]13 (stereo partly shown) [NFL, N-formylloline] |  |  | reduced | higher degradation | significant decrease in stability | approximately 100 hours | greatest stability | lower stability
